Results published in the CheMixHub viscosity set.
Values joined by “and” are separate entries in the source; they are usually repeats but may differ in a detail not shown here. Equal values may be shown once. ± gives the uncertainty stated by the source.

Experiment: xn = mol fraction of the nth substance listed

CC1COC(=O)O1 (stereo not drawn) + Cc1ccccc1
viscosity [mPa·s], 101.3 kPa
Settings | 293.15 K | 298.15 K | 303.15 K | 308.15 K
x1 = 0.0911 | 0.6805 ± 0.036 | 0.6333 ± 0.034 | 0.5934 ± 0.032 | 0.5572 ± 0.03
x1 = 0.1223 | – | – | 0.6125 ± 0.011 | –
x1 = 0.1841 | 0.7726 ± 0.04 | 0.719 ± 0.037 | 0.6689 ± 0.035 | 0.6294 ± 0.034
x1 = 0.2385 | – | – | 0.7127 ± 0.013 | –
x1 = 0.2789 | 0.8738 ± 0.044 | 0.8139 ± 0.041 | 0.7586 ± 0.039 | 0.7171 ± 0.037
x1 = 0.3493 | – | – | 0.824 ± 0.014 | –
x1 = 0.3757 | 1.006 ± 0.05 | 0.9358 ± 0.047 | 0.8694 ± 0.044 | 0.8243 ± 0.042
x1 = 0.4553 | – | – | 0.9463 ± 0.016 | –
x1 = 0.4744 | 1.149 ± 0.056 | 1.074 ± 0.053 | 0.9983 ± 0.049 | 0.9407 ± 0.047
x1 = 0.5561 | – | – | 1.085 ± 0.018 | –
x1 = 0.5752 | 1.292 ± 0.062 | 1.195 ± 0.058 | 1.103 ± 0.054 | 1.03 ± 0.051
x1 = 0.6524 | – | – | 1.244 ± 0.021 | –
x1 = 0.678 | 1.529 ± 0.072 | 1.404 ± 0.067 | 1.304 ± 0.063 | 1.203 ± 0.058
x1 = 0.7452 | – | – | 1.431 ± 0.024 | –
x1 = 0.7831 | 1.856 ± 0.086 | 1.69 ± 0.079 | 1.549 ± 0.073 | 1.42 ± 0.068
x1 = 0.8335 | – | – | 1.646 ± 0.027 | –
x1 = 0.8904 | 2.256 ± 0.1 | 2.048 ± 0.095 | 1.869 ± 0.087 | 1.71 ± 0.08
x1 = 0.9188 | – | – | 1.888 ± 0.031 | –

COc1ccccc1 + CCCCCCCCO
viscosity [mPa·s], 101.33 kPa
Settings | x1 = 0.1001 | x1 = 0.2 | x1 = 0.3002 | x1 = 0.3998 | x1 = 0.5 | x1 = 0.6002 | x1 = 0.7001 | x1 = 0.8002 | x1 = 0.9
303.15 K | 4.86 ± 0.11 | 3.795 ± 0.088 | 3.074 ± 0.072 | 2.432 ± 0.057 | 1.966 ± 0.047 | 1.576 ± 0.038 | 1.217 ± 0.039 | 1.108 ± 0.035 | 0.968 ± 0.031
313.15 K | 3.589 ± 0.083 | 2.872 ± 0.067 | 2.342 ± 0.055 | 1.922 ± 0.046 | 1.561 ± 0.038 | 1.28 ± 0.031 | 1.014 ± 0.033 | 0.934 ± 0.031 | 0.831 ± 0.028
323.15 K | 2.702 ± 0.063 | 2.163 ± 0.051 | 1.863 ± 0.044 | 1.547 ± 0.037 | 1.288 ± 0.031 | 1.054 ± 0.034 | 0.843 ± 0.028 | 0.789 ± 0.026 | 0.725 ± 0.025

c1ccc2ccccc2c1 + c1ccccc1
Settings | viscosity
293.15 K, 101 kPa, x1 = 0.006242 | 0.653 ± 0.023 mPa·s
293.15 K, 101 kPa, x1 = 0.01216 | 0.66 ± 0.023 mPa·s
293.15 K, 101 kPa, x1 = 0.02495 | 0.674 ± 0.024 mPa·s
298.15 K, 101 kPa, x1 = 0.051 | 0.6565 ± 0.017 mPa·s
298.15 K, 101 kPa, x1 = 0.1121 | 0.7261 ± 0.019 mPa·s
298.15 K, 101 kPa, x1 = 0.1538 | 0.7707 ± 0.02 mPa·s
298.15 K, 101 kPa, x1 = 0.1979 | 0.8263 ± 0.022 mPa·s
298.15 K, 101 kPa, x1 = 0.2398 | 0.8764 ± 0.023 mPa·s
298.15 K, 101 kPa, x1 = 0.2476 | 0.8712 ± 0.022 mPa·s
298.15 K, 101 kPa, x1 = 0.2693 | 0.9178 ± 0.024 mPa·s
298.15 K, 101.33 kPa, x1 = 0.0282 | 0.6309 ± 0.0063 mPa·s
298.15 K, 101.33 kPa, x1 = 0.069 | 0.6732 ± 0.0066 mPa·s
298.15 K, 101.33 kPa, x1 = 0.0898 | 0.6932 ± 0.0068 mPa·s
298.15 K, 101.33 kPa, x1 = 0.1341 | 0.7423 ± 0.0072 mPa·s
298.15 K, 101.33 kPa, x1 = 0.1587 | 0.7733 ± 0.0075 mPa·s
298.15 K, 101.33 kPa, x1 = 0.2089 | 0.833 ± 0.008 mPa·s
298.15 K, 101.33 kPa, x1 = 0.25 | 0.8712 ± 0.0087 mPa·s
298.15 K, 101.33 kPa, x1 = 0.2533 | 0.8891 ± 0.0085 mPa·s
303.15 K, 101 kPa, x1 = 0.2476 | 0.8077 ± 0.02 mPa·s
303.15 K, 101 kPa, x1 = 0.3593 | 0.9452 ± 0.024 mPa·s
303.15 K, 101.33 kPa, x1 = 0.0282 | 0.5882 ± 0.0059 mPa·s
303.15 K, 101.33 kPa, x1 = 0.069 | 0.6269 ± 0.0062 mPa·s
303.15 K, 101.33 kPa, x1 = 0.0898 | 0.6448 ± 0.0064 mPa·s
303.15 K, 101.33 kPa, x1 = 0.1341 | 0.6897 ± 0.0068 mPa·s
303.15 K, 101.33 kPa, x1 = 0.1587 | 0.7181 ± 0.007 mPa·s
303.15 K, 101.33 kPa, x1 = 0.2089 | 0.7723 ± 0.0075 mPa·s
303.15 K, 101.33 kPa, x1 = 0.25 | 0.8077 ± 0.0081 mPa·s and 0.8077 ± 0.083 mPa·s
303.15 K, 101.33 kPa, x1 = 0.2533 | 0.8222 ± 0.0079 mPa·s
303.15 K, 101.33 kPa, x1 = 0.26 | 0.8211 ± 0.085 mPa·s
303.15 K, 101.33 kPa, x1 = 0.33 | 0.874 ± 0.09 mPa·s
303.15 K, 101.33 kPa, x1 = 0.36 | 0.9452 ± 0.0095 mPa·s and 0.9452 ± 0.098 mPa·s
308.15 K, 101 kPa, x1 = 0.2476 | 0.7485 ± 0.019 mPa·s
308.15 K, 101 kPa, x1 = 0.3593 | 0.8742 ± 0.022 mPa·s
308.15 K, 101.33 kPa, x1 = 0.25 | 0.7485 ± 0.0075 mPa·s
308.15 K, 101.33 kPa, x1 = 0.36 | 0.8742 ± 0.0087 mPa·s
313.15 K, 101 kPa, x1 = 0.006242 | 0.501 ± 0.02 mPa·s
313.15 K, 101 kPa, x1 = 0.01216 | 0.505 ± 0.02 mPa·s
313.15 K, 101 kPa, x1 = 0.02495 | 0.514 ± 0.02 mPa·s
313.15 K, 101 kPa, x1 = 0.2476 | 0.6983 ± 0.018 mPa·s
313.15 K, 101 kPa, x1 = 0.3593 | 0.8115 ± 0.02 mPa·s
313.15 K, 101.33 kPa, x1 = 0.0282 | 0.516 ± 0.0053 mPa·s
313.15 K, 101.33 kPa, x1 = 0.069 | 0.5478 ± 0.0055 mPa·s
313.15 K, 101.33 kPa, x1 = 0.0898 | 0.5665 ± 0.0057 mPa·s
313.15 K, 101.33 kPa, x1 = 0.1341 | 0.6017 ± 0.006 mPa·s
313.15 K, 101.33 kPa, x1 = 0.1587 | 0.6263 ± 0.0062 mPa·s
313.15 K, 101.33 kPa, x1 = 0.2089 | 0.6698 ± 0.0066 mPa·s
313.15 K, 101.33 kPa, x1 = 0.25 | 0.6983 ± 0.007 mPa·s
313.15 K, 101.33 kPa, x1 = 0.2533 | 0.72 ± 0.007 mPa·s
313.15 K, 101.33 kPa, x1 = 0.36 | 0.8115 ± 0.0081 mPa·s
318.15 K, 101 kPa, x1 = 0.2476 | 0.654 ± 0.016 mPa·s
318.15 K, 101 kPa, x1 = 0.3593 | 0.7546 ± 0.019 mPa·s
318.15 K, 101.33 kPa, x1 = 0.25 | 0.654 ± 0.0065 mPa·s and 0.654 ± 0.068 mPa·s
318.15 K, 101.33 kPa, x1 = 0.26 | 0.666 ± 0.069 mPa·s
318.15 K, 101.33 kPa, x1 = 0.33 | 0.7066 ± 0.073 mPa·s
318.15 K, 101.33 kPa, x1 = 0.36 | 0.7546 ± 0.0075 mPa·s and 0.7546 ± 0.078 mPa·s
318.15 K, 101.33 kPa, x1 = 0.418 | 0.817 ± 0.084 mPa·s
323.15 K, 101 kPa, x1 = 0.009498 | 0.445 ± 0.018 mPa·s
323.15 K, 101 kPa, x1 = 0.02432 | 0.454 ± 0.018 mPa·s
323.15 K, 101 kPa, x1 = 0.02618 | 0.456 ± 0.019 mPa·s
323.15 K, 101.33 kPa, x1 = 0.0282 | 0.4564 ± 0.0048 mPa·s
323.15 K, 101.33 kPa, x1 = 0.069 | 0.4838 ± 0.005 mPa·s
323.15 K, 101.33 kPa, x1 = 0.0898 | 0.4993 ± 0.0051 mPa·s
323.15 K, 101.33 kPa, x1 = 0.1341 | 0.529 ± 0.0054 mPa·s
323.15 K, 101.33 kPa, x1 = 0.1587 | 0.5509 ± 0.0056 mPa·s
323.15 K, 101.33 kPa, x1 = 0.2089 | 0.5871 ± 0.0059 mPa·s
323.15 K, 101.33 kPa, x1 = 0.2533 | 0.6319 ± 0.0063 mPa·s

c1ccc2ccccc2c1 + ClC(Cl)(Cl)Cl
viscosity [mPa·s], 101 kPa
Settings | 303.15 K | 308.15 K | 313.15 K | 318.15 K | 323.15 K
x1 = 0.2515 | 1.085 ± 0.027 | 1 ± 0.025 | 0.9335 ± 0.024 | 0.8708 ± 0.022 | 0.8138 ± 0.021
x1 = 0.4038 | – | – | 1.109 ± 0.028 | 1.036 ± 0.026 | 0.9672 ± 0.024

COc1ccccc1 + CC(C)CO
viscosity [mPa·s], 101.33 kPa
Settings | x1 = 0.1001 | x1 = 0.2001 | x1 = 0.2999 | x1 = 0.4001 | x1 = 0.5 | x1 = 0.6001 | x1 = 0.7 | x1 = 0.8001 | x1 = 0.9002
303.15 K | 1.789 ± 0.016 | 1.326 ± 0.012 | 1.157 ± 0.01 | 1.069 ± 0.01 | 1.011 ± 0.009 | 0.969 ± 0.009 | 0.951 ± 0.008 | 0.934 ± 0.008 | 0.921 ± 0.008
313.15 K | 1.355 ± 0.012 | 1.064 ± 0.01 | 0.933 ± 0.009 | 0.862 ± 0.008 | 0.845 ± 0.008 | 0.831 ± 0.007 | 0.816 ± 0.007 | 0.803 ± 0.007 | 0.792 ± 0.007
323.15 K | 1.063 ± 0.01 | 0.829 ± 0.008 | 0.768 ± 0.007 | 0.743 ± 0.007 | 0.736 ± 0.007 | 0.731 ± 0.007 | 0.718 ± 0.007 | 0.708 ± 0.006 | 0.697 ± 0.006
